Laboratory results: US20110112100A1, “Hepatitis C Virus Inhibitors” (priority 2009, published 2011)
Structures can show the parent of a compound that is named as a salt. Where two headings read alike, the source gives them in different places.

Tests used:
1a-H77 replicon cells = test: HCV 1a replicon inhibitory activity (Renilla luciferase); type: cell-based, hepatitis C virus; details: read-out: IC50 value (95% Confidence Intervals) pM Replicon 1A assay
Protocol: (§1) Test compounds were solubilised to 4 mM in 100% DMSO. Dilutions were made to the desired starting concentration in 100% DMSO and then 1 in 3 dilutions made, again in 100% DMSO. 0.5 μl of each sample was added to 384-well assay plates. White Lumitrac (Greiner) plates were used for the 1a and 1b replicon assays and black, clear bottomed (Greiner) plates were used for the WST-1 cytotoxity assay.
1a-H77 replicon cells (licensed from Apath LLC) were resuspended to a concentration of 1.4×10^5 cells/ml by addition of pre-warmed assay medium (Dulbecco's Modified Eagle's Medium (DMEM)+10% fetal calf serum (FCS)). 50 μl of this suspension was added to each well of a 384-well assay plate (Lumitrac, Greiner), already containing 0.5 μl of test compound.
All plates were covered with gas permeable seals and incubated at 37° C., 5% CO2 for 48 hours. After 48 hours, the assay plate was removed from the incubator and left to cool to room temperature for 15 to 30 mins. Medium was removed from the wells and 5 μl 1× lysis buffer (from Promega's Renilla Luciferase assay kit, E2820) was added to each well. The plate was incubated at room temperature for 15 mins then 15 μl 1×Assay Substrate (from the same kit) was added to each well. Luminescence was read immediately using an EnVision (Perkin Elmer) plate reader. The half maximal effective concentration (1050) values were calculated by constructing log concentration-response curves for each compound.

1b (con1) replicon cells = test: HCV 1b replicon inhibitory activity (luciferase, Britelite Plus); type: cell-based, hepatitis C virus; details: read-out: IC50 value (95% Confidence Intervals) pM Replicon 1B assay
Protocol: as §1
1b (con1) replicon cells (pFK1389lucubineo/NS3-3′/ET/9B, licensed from Ralf Bartenschlager, University of Heidelberg) were resuspended to a concentration of 1.4×10^5 cells/ml by addition of pre-warmed medium (DMEM+10% FCS). 50 μl of this suspension was added to each well of a 384-well assay plate (Lumitrac, Greiner) already containing 0.5 μl of test compound.
All plates were covered with gas permeable seals and incubated at 37° C., 5% CO2 for 48 hours. After 48 hours, the plate was removed from the incubator and left to cool to room temperature for 15-30 mins. 35 ul of reconstituted Lyophilised Britelite Plus Substrate (PerkinElmer, 6016767) to medium was added to each well. Luminescence was read after 1 min but before 15 mins on an EnVision (Perkin Elmer) plate reader. The half maximal effective concentration (1050) values were calculated by constructing log concentration-response curves for each compound.

[1] = geometric mean, 95% confidence intervals in parentheses, 48 hours, medium with 10% FCS

SMILES | IC50 (1a-H77 replicon cells; Hepatitis C virus, 48 h) | IC50 (1b (con1) replicon cells; Hepatitis C virus, 48 h) | IC50 (1a-H77 replicon cells; [1]) | IC50 (1b (con1) replicon cells; [1])
COC(=O)N[C@H](C(=O)N1CCC[C@H]1c1nc(-c2ccc(-c3cnc4cc(-c5cnc([C@@H]6CCCN6C(=O)CNC(=O)c6ccc7[nH]cnc7c6)[nH]5)ccc4n3)cc2)c[nH]1)C(C)C [Example 43, Methyl {(2S)-1-[(2S)-2-(4-{4-[6-(2-{(2S)-1-[N-(1H-benzimidazol-5-ylcarbonyl)glycyl]pyrrolidin-2-yl}-1H-imidazol-5-yl)quinoxalin-2-yl]phenyl}-1H-imidazol-2-yl)pyrrolidin-1-yl]-3-methyl-1-oxobutan-2-yl}carbamate trifluoroacetic acid salt] | 787 pM | 388 pM |  | 
COC(=O)N[C@H](C(=O)N1CCC[C@H]1c1nc(-c2ccc(-c3cnc4cc(-c5cnc([C@@H]6CCCN6C(=O)CNC(=O)c6[nH]nc7ccccc67)[nH]5)ccc4n3)cc2)c[nH]1)C(C)C [Example 44, Methyl {(2S)-1-[(2S)-2-(4-{4-[6-(2-{(2S)-1-[N-(2H-indazol-3-ylcarbonyl)glycyl]pyrrolidin-2-yl}-1H-imidazol-5-yl)quinoxalin-2-yl]phenyl}-1H-imidazol-2-yl)pyrrolidin-1-yl]-3-methyl-1-oxobutan-2-yl} carbamate trifluoroacetic acid salt] |  |  | 3510 pM | 100 pM
COC(=O)N[C@H](C(=O)N1CCC[C@H]1c1nc(-c2ccc(-c3cnc4cc(-c5cnc([C@@H]6CCCN6C(=O)CNC(=O)CN6C(=O)CCc7ccccc76)[nH]5)ccc4n3)cc2)c[nH]1)C(C)C [Example 45, Methyl {(2S)-3-methyl-1-oxo-1-[(2S)-2-{4-[4-(6-[2-[(2S)-1-{N-[(2-oxo-3,4-dihydroquinolin-1(2H)-yl)acetyl]glycyl}pyrrolidin-2-yl]-1H-imidazol-5-yl}quinoxalin-2-yl)phenyl]-1H-imidazol-2-yl}pyrrolidin-1-yl]butan-2-yl}carbamate trifluoroacetic acid salt] | 20000 pM | 507 pM |  | 
COC(=O)N[C@H](C(=O)N1CCC[C@H]1c1nc(-c2ccc(-c3cnc4cc(-c5cnc([C@@H]6CCCN6C(=O)[C@@H](C)NC(C)=O)[nH]5)ccc4n3)cc2)c[nH]1)C(C)C [Example 46, Methyl {(2S)-1-[(2S)-2-{4-[4-(6-(2-[(2S)-1-(N-acetyl-D-alanyl)pyrrolidin-2-yl]-1H-imidazol-5-yl}quinoxalin-2-yl)phenyl]-1H-imidazol-2-yl}pyrrolidin-1-yl]-3-methyl-1-oxobutan-2-yl}carbamate trifluoroacetic acid salt] | 803 pM | 44.2 pM |  | 
COC(=O)N[C@@H](COCc1ccccc1)C(=O)N1CCC[C@H]1c1ncc(-c2ccc3nc(-c4ccc(-c5c[nH]c([C@@H]6CCCN6C(=O)[C@@H](NC(=O)OC)C(C)C)n5)cc4)cnc3c2)[nH]1 [Example 48, Methyl {(2S)-1-[(2S)-2-{4-[4-(6-{2-[(2S)-1-{(2S)-3-(benzyloxy)-2-[(methoxycarbonyl)amino]propanoyl}pyrro-lidin-2-yl]-1H-imidazol-5-yl}quinoxalin-2-yl)phenyl]-1H-imidazol-2-yl}pyrrolidin-1-yl]-3-methyl-1-oxobutan-2-yl}carbamate carbamate trifluoroacetic acid salt] |  |  | 27.8 pM | 6.84 pM
COC(=O)N[C@H](C(=O)N1CCC[C@H]1c1nc(-c2ccc(-c3cnc4cc(-c5cnc([C@@H]6CCCN6C(=O)C6(NC(=O)OC)CCC6)[nH]5)ccc4n3)cc2)c[nH]1)C(C)C [Example 50, Methyl {(2S)-1-[(2S)-2-{4-[4-(6-{2-[(2S)-1-({1-[(methoxycarbonyl)amino]cyclobutyl}carbonyl)pyrrolidin-2-yl]-1H-imidazol-5-yl}quinoxalin-2-yl)phenyl]-1H-imidazol-2-yl}pyrrolidin-1-yl]-3-methyl-1-oxobutan-2-yl}carbamate trifluoroacetic acid salt] | 356 pM | 77.2 pM |  | 
COC(=O)N[C@H](C(=O)N1CCC[C@H]1c1nc(-c2ccc(-c3cnc4cc(-c5cnc([C@@H]6CCCN6C(=O)C(C)(C)NC(=O)OC)[nH]5)ccc4n3)cc2)c[nH]1)C(C)C [Example 51, Methyl {(2S)-1-[(2S)-2-{4-[4-(6-{2-[(2S)-1-{2-[(methoxycarbonyl)amino]-2-methylpropanoyl}pyrrolidin-2-yl]-1H-imidazol-5-yl}quinoxalin-2-yl)phenyl]-1H-imidazol-2-yl}pyrrolidin-1-yl]-3-methyl-1-oxobutan-2-yl}carbamate trifluoroacetic acid salt] | 1850 pM | 144 pM |  | 
COC(=O)N[C@H](C(=O)N1CCC[C@H]1c1nc(-c2ccc(-c3cnc4cc(-c5cnc([C@@H]6CCCN6C(=O)[C@@H](C)NC(=O)OC)[nH]5)ccc4n3)cc2)c[nH]1)C(C)C [Example 53, Methyl {(2S)-1-[(2S)-2-(4-{4-[6-(2-{(2S)-1-[N-(methoxycarbonyl)-D-alanyl]pyrrolidin-2-yl}-1H-imidazol-5-yl)quinoxalin-2-yl]phenyl}-1H-imidazol-2-yl)pyrrolidin-1-yl]-3-methyl-1-oxobutan-2-yl} carbamate trifluoroacetic acid salt] |  |  | 646 pM | 21.1 pM
COC(=O)N[C@H](C(=O)N1CCC[C@H]1c1nc(-c2ccc(-c3cnc4cc(-c5cnc([C@@H]6CCCN6C(=O)[C@@H](CC(C)C)NC(=O)OC)[nH]5)ccc4n3)cc2)c[nH]1)C(C)C [Example 54, Methyl {(2R)-1-[(2S)-2-{5-[2-(4-{2-[(2S)-1-{(2S)-2-[(methoxycarbonyl)amino]-3-methylbutanoyl}pyrrolidin-2-yl]-1H-imidaozl-4-yl}phenyl)quinoxalin-6-yl]-1H-imidazol-2-yl}pyrrolidin-1-yl]-4-methyl-1-oxopentan-2-yl}carbamate trifluoroacetic acid salt] |  |  | 61.2 pM | 14.9 pM
CCC[C@H](NC(=O)OC)C(=O)N1CCC[C@H]1c1ncc(-c2ccc3nc(-c4ccc(-c5c[nH]c([C@@H]6CCCN6C(=O)[C@@H](NC(=O)OC)C(C)C)n5)cc4)cnc3c2)[nH]1 [Example 55, Methyl {(2S)-1-[(2S)-2-{5-[2-(4-{2-[(2S)-1-{(2S)-2-[(methoxycarbonyl)amino]-3-methylbutanoyl}pyrrolidin-2-yl]-1H-imidazol-4-yl}phenyl)quinoxalin-6-yl]-1H-imidazol-2-yl}pyrrolidin-1-yl]-1-oxopentan-2-yl}carbamate trifluoroacetic acid salt] | 18.1 pM | 8.85 pM |  | 
COC(=O)N[C@@H](C)C(=O)N1CCC[C@H]1c1ncc(-c2ccc3nc(-c4ccc(-c5c[nH]c([C@@H]6CCCN6C(=O)[C@@H](NC(=O)OC)C(C)C)n5)cc4)cnc3c2)[nH]1 [Example 57, Methyl {(2S)-1-[(2S)-2-(4-{4-[6-(2-{(2S)-1-[N-(methoxycarbonyl)-L-alanyl]pyrrolidin-2-yl}-1H-imidazol-5-yl)quinoxalin-2-yl]phenyl}-1H-imidazol-2-yl)pyrrolidin-1-yl]-3-methyl-1-oxobutan-2-yl} carbamate trifluoroacetic acid salt] |  |  | 21.8 pM | 21.9 pM
CC[C@@H](NC(=O)OC)C(=O)N1CCC[C@H]1c1ncc(-c2ccc3nc(-c4ccc(-c5c[nH]c([C@@H]6CCCN6C(=O)[C@@H](NC(=O)OC)C(C)C)n5)cc4)cnc3c2)[nH]1 [Example 59, Methyl {(2S)-1-[(2S)-2-{4-[4-(6-{2-[(2S)-1-{(2R)-2-[(methoxycarbonyl)amino]butanoyl}pyrrolidin-2-yl]-1H-imidazol-5-yl}quinoxalin-2-yl)phenyl]-1H-imidazol-2-yl}pyrrolidin-1-yl]-3-methyl-1-oxobutan-2-yl} carbamate trifluoroacetic acid salt] |  |  | 2390 pM | 97.5 pM
COC(=O)N[C@H](C(=O)N1CCC[C@H]1c1nc(-c2ccc(-c3cnc4cc(-c5cnc([C@@H]6CCCN6C(=O)[C@H](NC(=O)OC)C(C)C)[nH]5)ccc4n3)cc2)c[nH]1)C(C)C [Example 61, Methyl {(2S)-1-[(2S)-2-{4-[4-(6-{2-[(2S)-1-{(2R)-2-[(methoxycarbonyl)amino]-3-methylbutanoyl}pyrrolidin-2-yl]-1H-imidazol-5-yl}quinoxalin-2-yl)phenyl]-1H-imidazol-2-yl}pyrrolidin-1-yl]-3-methyl-1-oxobutan-2-yl}carbamate trifluoroacetic acid salt] | 6400 pM | 83.5 pM |  | 
